Source: patent publication US9333205B2, “Isoxazolo-quinazolines as modulators of protein kinase activity” (NERVIANO MEDICAL SCIENCES S.R.L., priority 2010, dated 2016)

Key:
[1] = biological target: MPS1 (Homo sapiens (Human), UniProt P33981); test: Biochemical trans-phosphorylation (Dowex, 33P-γ-ATP) assay for inhibitors of MPS1 kinase activity; conditions: MPS1 5 nM, 15 microM ATP, P38-βtide 200 microM
Source text: Cloning, Expression and Purification of Recombinant MPS1 Full Length Protein.
MPS1 full length (corresponding to residues 2-857 of the full length sequence, see Swiss-Prot accession number P33981) was PCR amplified from the full-length human MPS1 gene present in house as clone pGEX4t_MPS1.
Baculoviruses were generated by cotransfecting Sf9 insect cells with the expression vector and the viral DNA using the BaculoGold® transfection kit (Pharmingen). Viral supernatant was recovered after 5 days and subjected to 3 rounds of amplification to increase viral titer. Recombinant protein was produced by infecting High5 insect cells. After 72 hours of infection at 21° C., cells were recovered, pelletted and freezed at −80° C. For purification of recombinant protein, pellet was thawed, resuspended in lysis buffer (PBS, NaCl 150 mM, Glycerol 10%, CHAPS 0.1%, DTT 20 mM, protease and phosphatase inhibitors) and lysed by Gaulin. Lysate was cleared by centrifugation and loaded on a GST affinity column. After extensive wash, recombinant protein was cleaved by a specific protease and eluted by incubation.
To get a fully activated enzyme, the protein was then subjected to auto-phosphorylation in presence of ATP 1 mM at 25° C. for 2 hours in kinase buffer (Hepes pH7.5 50 mM, MgCl2 2.5 mM, MnCl2 1 mM, DTT 1 mM, phosphatase inhibitors); ATP was then removed whit a desalting column.
(§1) Biochemical Assay for Inhibitors of MPS1 and PERK Kinase Activity
(§2) The inhibitory activity of putative kinase inhibitors and the potency of selected compounds were determined using a trans-phosphorylation assay.
Specific peptide or protein substrates are trans-phosphorylated by their specific ser-thr or tyr kinase in the presence of ATP traced with ^33P-γ-ATP, and in the presence of their own optimal buffer and cofactors. […]
Supernatant is subsequently withdrawn and transferred into a counting plate, then evaluated by β-counting. […]

[2] = biological target: PERK (Homo sapiens (Human), UniProt Q9NZJ5); test: Biochemical trans-phosphorylation (Dowex, 33P-γ-ATP) assay for inhibitors of PERK kinase activity; conditions: PERK 8 nM, 52 microM ATP, eIF2alfa-tide 300 microM
Chain of PERK (Q9NZJ5 540-1115): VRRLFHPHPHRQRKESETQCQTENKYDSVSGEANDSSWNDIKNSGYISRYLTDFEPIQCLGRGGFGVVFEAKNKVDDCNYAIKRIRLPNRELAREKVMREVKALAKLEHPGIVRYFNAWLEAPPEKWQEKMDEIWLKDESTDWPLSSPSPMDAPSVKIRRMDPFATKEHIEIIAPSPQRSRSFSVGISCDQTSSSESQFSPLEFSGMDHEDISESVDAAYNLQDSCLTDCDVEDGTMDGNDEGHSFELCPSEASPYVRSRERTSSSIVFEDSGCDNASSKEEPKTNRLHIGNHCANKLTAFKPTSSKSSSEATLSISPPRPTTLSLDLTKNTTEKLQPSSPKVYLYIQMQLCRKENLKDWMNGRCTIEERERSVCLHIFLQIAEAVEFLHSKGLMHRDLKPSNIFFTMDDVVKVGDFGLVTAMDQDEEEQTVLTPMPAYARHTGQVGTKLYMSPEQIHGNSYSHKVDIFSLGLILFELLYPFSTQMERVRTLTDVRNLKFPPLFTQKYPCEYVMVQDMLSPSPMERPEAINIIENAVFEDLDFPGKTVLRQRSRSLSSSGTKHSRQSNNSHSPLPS
Protocol: Cloning, Expression and Purification of Recombinant PERK Cytoplasmic Domain Protein.
PERK cytoplasmic domain (corresponding to residues 540-1115; Swiss-Prot accession number Q9NZJ5) was PCR amplified using the following forward oligonucleotide:
Recombinant protein was produced in BL21(DE3)pLysS strain, in auto-induction medium, at 21° C. for 24 hours (see F. W. Studier, “Protein production by auto-induction in high density shaking cultures”, Protein Expression and Purification (2005) vol. 41:207-234). The cells were recovered by centrifugation, and the pellet frozen at −80° C. For purification of recombinant protein, pellet was thawed, resuspended in lysis buffer (Tris-HCl 50 mM pH 7.6, NaCl 250 mM, Glycerol 10%, CHAPS 0.2%, Imidazole 5 mM, protease and phosphatase inhibitors) and lysed by Gaulin homogenizer. Lysate was cleared by centrifugation and loaded on a Ni-NTA and the eluate on a GST affinity column. After extensive wash, recombinant protein was cleaved by a specific protease and eluted. Recombinant PERK cytoplasmic domain obtained by this protocol was >85% pure by coomassie stained SDS-PAGE.
as §1, §2
Specific peptide or protein substrates are trans-phosphorylated by their specific ser-thr or tyr kinase in the presence of ATP traced with ^33P-γ-ATP, and in the presence of their own optimal buffer and cofactors.
At the end of the phosphorylation reaction, more than 98% unlabeled ATP and radioactive ATP is captured by an excess of the ion exchange dowex resin; the resin then settles down to the bottom of the reaction plate by gravity.
Supernatant is subsequently withdrawn and transferred into a counting plate, then evaluated by β-counting.
The buffer for PERK assay was composed of HEPES 50 mM, at pH 7.5 with 3 mM MgCl2, 1 mM DTT, 3 microM Na3VO4, and 0.2 mg/mL BSA […]

Chain of MPS1 (P33981 2-857): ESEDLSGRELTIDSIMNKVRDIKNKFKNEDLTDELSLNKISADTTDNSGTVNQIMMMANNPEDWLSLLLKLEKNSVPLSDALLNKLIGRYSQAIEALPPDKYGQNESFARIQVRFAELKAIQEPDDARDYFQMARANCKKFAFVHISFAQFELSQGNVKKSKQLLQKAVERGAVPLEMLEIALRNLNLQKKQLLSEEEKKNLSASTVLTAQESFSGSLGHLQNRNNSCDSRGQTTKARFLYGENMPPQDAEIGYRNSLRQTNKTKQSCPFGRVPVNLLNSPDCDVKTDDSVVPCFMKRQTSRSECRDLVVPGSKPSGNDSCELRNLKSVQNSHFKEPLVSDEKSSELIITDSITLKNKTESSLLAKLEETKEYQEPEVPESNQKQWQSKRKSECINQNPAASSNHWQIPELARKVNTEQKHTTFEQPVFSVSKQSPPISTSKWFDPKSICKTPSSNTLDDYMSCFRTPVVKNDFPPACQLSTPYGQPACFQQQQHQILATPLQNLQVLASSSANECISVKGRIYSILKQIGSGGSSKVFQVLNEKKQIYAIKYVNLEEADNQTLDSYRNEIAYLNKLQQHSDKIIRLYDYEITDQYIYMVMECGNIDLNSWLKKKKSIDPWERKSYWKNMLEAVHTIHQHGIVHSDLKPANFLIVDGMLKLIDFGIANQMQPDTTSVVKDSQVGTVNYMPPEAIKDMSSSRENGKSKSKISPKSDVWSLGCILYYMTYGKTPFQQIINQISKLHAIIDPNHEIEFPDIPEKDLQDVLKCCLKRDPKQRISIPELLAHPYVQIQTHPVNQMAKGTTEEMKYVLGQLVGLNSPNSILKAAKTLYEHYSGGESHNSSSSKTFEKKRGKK

SMILES	IC50 [1] [nM]	IC50 [2] [nM]
COc1cc(C(=O)NC2CCN(C)CC2)ccc1Nc1ncc2c(n1)-c1onc(C(N)=O)c1CC2(C)C [Compound 55, 8-({2-methoxy-4-[(1-methylpiperidin-4-yl)carbamoyl]phenyl}amino)-5,5-dimethyl-4,5-dihydroisoxazolo[4,5-h]quinazoline-3-carboxamide]	3440	510
COc1cc(C(=O)NC2CCN(C)CC2)ccc1Nc1ncc2c(n1)-c1onc(C(=O)N[C@@H](CN)c3ccccc3)c1CC2(C)C [Compound 61, N-[(1R)-2-amino-1-phenylethyl]-8-({2-methoxy-4-[(1-methylpiperidin-4-yl)carbamoyl]phenyl}amino)-5,5-dimethyl-4,5-dihydroisoxazolo[4,5-h]quinazoline-3-carboxamide]	360	240
COc1cc(C(=O)NC2CCN(C)CC2)ccc1Nc1ncc2c(n1)-c1noc(C(N)=O)c1C(C)(C)C2 [Compound 30, 8-({2-methoxy-4-[(1-methylpiperidin-4-yl)carbamoyl]phenyl}amino)-4,4-dimethyl-4,5-dihydroisoxazolo[4,3-h]quinazoline-3-carboxamide]	680	400
